± gives the standard deviation of the averaged measurements.
Experiments:
[1] = compound: O=C(NOCC1CC1)c1ccc(F)c(F)c1Nc1ccc(I)cc1Cl; assay: surviving fraction relative to DMSO-only wells; higher = less growth inhibition; conditions: exposure time: 5 days
Procedure, shortened: (§1)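 At 250–500 cells per well in 384-well plates, log-phase tumour cell lines were seeded and, 24 hours on, exposed continuously for five days to inhibitors at 0.5, 1, 5, 10, 50, 100, 500 and 1000 nM. Viability readout was CellTiter-Glo luminescence, reported as surviving fraction normalised to the median of DMSO-only wells.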

MK2206 = compound: NC1(c2ccc(-c3nc4ccn5c(=O)[nH]nc5c4cc3-c3ccccc3)cc2)CCC1 [MK2206]; assay: as above; conditions: exposure time: 5 days
Procedure, shortened: as §1

Test System	surviving fraction ([1]; 0.5 nM)	surviving fraction ([1]; 1 nM)	surviving fraction ([1]; 5 nM)	surviving fraction ([1]; 10 nM)	surviving fraction ([1]; 50 nM)	surviving fraction ([1]; 100 nM)	surviving fraction ([1]; 500 nM)	surviving fraction ([1]; 1000 nM)	surviving fraction (MK2206; 0.5 nM)	surviving fraction (MK2206; 1 nM)	surviving fraction (MK2206; 5 nM)	surviving fraction (MK2206; 10 nM)	surviving fraction (MK2206; 50 nM)	surviving fraction (MK2206; 100 nM)	surviving fraction (MK2206; 500 nM)	surviving fraction (MK2206; 1000 nM)
HUO3N1 BONE	1.04 ± 0.051	1.01 ± 0.056	1.05 ± 0.03	1.04 ± 0.029	1.03 ± 0.037	1.01 ± 0.011	0.935 ± 0.017	1 ± 0.029	1.03 ± 0.072	1.02 ± 0.045	1.02 ± 0.052	1.02 ± 0.051	0.897 ± 0.044	0.825 ± 0.036	0.67 ± 0.023	0.64 ± 0.014
CAL72 BONE	1.045 ± 0.0036	1.065 ± 0.0074	1.07 ± 0.012	1.09 ± 0.041	1.051 ± 0.0061	1.085 ± 0.0095	1.07 ± 0.021	1.056 ± 0.0038	1.1 ± 0.024	1.1 ± 0.11	1.12 ± 0.06	1.11 ± 0.1	1.12 ± 0.019	1.16 ± 0.096	1.06 ± 0.087	1.05 ± 0.053
LNCAP PROSTATE	0.795 ± 0.11	0.855 ± 0.081	0.828 ± 0.11	0.99 ± 0.11	0.854 ± 0.17	0.921 ± 0.094	0.945 ± 0.024	0.884 ± 0.18	0.974 ± 0.07	0.936 ± 0.075	0.87 ± 0.015	0.839 ± 0.092	0.529 ± 0.022	0.398 ± 0.0075	0.0787 ± 0.0097	0.071 ± 0.0017
G292 BONE	0.986 ± 0.059	0.942 ± 0.064	0.985 ± 0.052	0.986 ± 0.035	0.967 ± 0.041	0.959 ± 0.058	0.897 ± 0.047	0.924 ± 0.0059	0.96 ± 0.031	1.01 ± 0.06	0.997 ± 0.033	0.992 ± 0.031	0.893 ± 0.041	0.833 ± 0.018	0.748 ± 0.054	0.724 ± 0.026
SCC003 HEADNECK	0.843 ± 0.1	0.826 ± 0.05	0.942 ± 0.11	0.907 ± 0.086	0.917 ± 0.079	0.924 ± 0.056	0.689 ± 0.037	0.648 ± 0.033	1.09 ± 0.063	1.08 ± 0.049	1.07 ± 0.053	1.07 ± 0.14	1.03 ± 0.021	1.09 ± 0.12	0.884 ± 0.05	0.717 ± 0.068
C33A CERVIX	0.68 ± 0.058	0.7503 ± 0.0031	0.868 ± 0.12	0.841 ± 0.071	0.736 ± 0.085	0.686 ± 0.047	0.477 ± 0.066	0.461 ± 0.032	0.919 ± 0.03	0.917 ± 0.026	1.05 ± 0.085	0.929 ± 0.029	1.01 ± 0.063	0.925 ± 0.058	0.812 ± 0.084	0.817 ± 0.042
